Test results taken from US8580829B2 (Boehringer Ingelheim International GmbH, priority 2010, dated 2013).
pIC50: −log10 of the molar value.

Assays:
[1] = tested on: synthesis of LTB4 in human whole blood; test: human whole blood LTB4 production inhibition assay; type: cell-based; conditions: Homo sapiens, heparinized human whole blood, calcimycin 20 μM; read-out: hWB LTB4 IC50
Procedure: Compounds are additionally tested in a human whole blood assay to determine their ability to inhibit the synthesis of LTB4 in a cellular system. Compounds are combined with heparinized human whole blood and incubated for 15 minutes at 37° C. Calcimycin (20 μM final, prepared in phosphate-buffered saline, pH 7.4) is then added and the mixture is incubated for another 30 minutes at 37° C. The samples are centrifuged for 5 min at low speed (1500×g) and the plasma layer is removed. Plasma LTB4 concentrations are then measured using an antibody-based homogenous time-resolved fluorescence method (CisBio, Bedford, Mass.).

[2] = biological target: T1, recombinant human FLAP protein (Homo sapiens, UniProt P20292); test: FLAP binding assay (Scintillation Proximity Assay, displacement of [125I]L-691,831); conditions: recombinant human FLAP membranes, [125I]L-691,831 probe; read-out: FLAP SPA IC50
T1 construct: made in house; host or cells: Sf9 insect cells (100,000 x g membrane fraction)
T1 sequence (P20292 1-161): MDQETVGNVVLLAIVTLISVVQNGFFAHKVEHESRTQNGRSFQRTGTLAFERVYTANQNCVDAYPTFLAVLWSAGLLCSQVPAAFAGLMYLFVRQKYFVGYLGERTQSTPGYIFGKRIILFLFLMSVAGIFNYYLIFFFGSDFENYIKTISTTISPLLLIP
Procedure: Cell pellets produced from sf9 insect cells expressing recombinant human FLAP protein are resuspended in buffer A [15 mM Tris-HCl (pH 7.5), 2 mM MgCl2, 0.3 mM EDTA, 1 mM PMSF]. The cells are lysed with a Dounce homogenizer and the material is centrifuged at 10,000×g for 10 minutes. The supernatant is then collected and centrifuged at 100,000×g for 60 minutes. To prepare membrane protein for an assay, an aliquot of the 100,000×g pellet is resuspended in 1 ml of buffer A, Dounce homogenized, and finally subjected to polytron mixing (30 seconds). Membrane protein (25 μl, 5 μg) is mixed with WGA SPA beads (Amersham) and stirred for 1 h.

Structure (SMILES)	pIC50 [1]	pIC50 [2]
COCCNc1cnc(-c2nc(C3(c4ccc(-c5cnc(N)nc5)cc4)CCC3)no2)cn1 [Example 62, 5-[4-(1-{5-[5-(2-Methoxy-ethylamino)-pyrazin-2-yl]-1,2,4-oxadiazol-3-yl}-cyclobutyl)-phenyl]-pyrimidin-2-ylamine]	7.89	8.89
CCNc1cnc(-c2nc(C3(c4ccc(-c5cnc(N)nc5)cc4)CCC3)no2)cn1 [Example 63, 5-(4-{1-[5-(5-Ethylamino-pyrazin-2-yl)-1,2,4-oxadiazol-3-yl]-cyclobutyl}-phenyl)-pyrimidin-2-ylamine]	7.60	9.00
Nc1ncc(-c2ccc(C3(c4noc(-c5ccc(C(=O)N6CC(O)C6)nc5)n4)CCC3)cc2)cn1 [Example 64, [5-(3-{1-[4-(2-Amino-pyrimidin-5-yl)-phenyl]-cyclobutyl}-1,2,4-oxadiazol-5-yl)-pyridin-2-yl]-(3-hydroxy-azetidin-1-yl)-methanone]	6.51	8.11
CCn1cccc(-c2nc(C3(c4ccc(-c5cnc(N)nc5)cc4)CCC3)no2)c1=O [Example 65, 3-(3-{1-[4-(2-Amino-pyrimidin-5-yl)-phenyl]-cyclobutyl}-1,2,4-oxadiazol-5-yl)-1-ethyl-1H-pyridin-2-one]	7.01	8.23
COCCn1cccc(-c2nc(C3(c4ccc(-c5cnc(N)nc5)cc4)CCC3)no2)c1=O [Example 66, 3-(3-{1-[4-(2-Amino-pyrimidin-5-yl)-phenyl]-cyclobutyl}-1,2,4-oxadiazol-5-yl)-1-(2-methoxy-ethyl)-1H-pyridin-2-one]	6.92	8.08
Nc1ncc(-c2ccc(C3(c4noc(-c5cccn(CCO)c5=O)n4)CCC3)cc2)cn1 [Example 67, 3-(3-{1-[4-(2-Amino-pyrimidin-5-yl)-phenyl]-cyclobutyl}-1,2,4-oxadiazol-5-yl)-1-(2-hydroxy-ethyl)-1H-pyridin-2-one]	6.54	7.92
Nc1ncc(-c2ccc(C3(c4noc(-c5cnc(NCCO)cn5)n4)CCC3)cc2)cn1 [Example 68, 2-[5-(3-{1-[4-(2-Amino-pyrimidin-5-yl)-phenyl]-cyclobutyl}-1,2,4-oxadiazol-5-yl)-pyrazin-2-ylamino]-ethanol]	6.89	8.96
Nc1ncc(-c2ccc(C3(c4noc(-c5ccc(C(=O)N6CCC6)nc5)n4)CCC3)cc2)cn1 [Example 70, [5-(3-{1-[4-(2-Amino-pyrimidin-5-yl)-phenyl]-cyclobutyl}-1,2,4-oxadiazol-5-yl)-pyridin-2-yl]-azetidin-1-yl-methanone]	6.66	8.52
Nc1ncc(-c2ccc(C3(c4noc(-c5cscn5)n4)CCC3)cc2)cn1 [Example 71]	6.70	8.62
Nc1ncc(-c2ccc(C3(c4noc(-c5cnn6cccnc56)n4)CCC3)cc2)cn1 [Example 72, 5-{4-[1-(5-Pyrazolo[1,5-a]pyrimidin-3-yl-1,2,4-oxadiazol-3-yl)-cyclobutyl]-phenyl}-pyrimidin-2-ylamine]	7.74	8.72
Nc1ncc(-c2ccc(C3(c4noc(-c5ccc6nccn6c5)n4)CCC3)cc2)cn1 [Example 73, 5-{4-[1-(5-Imidazo[1,2-a]pyridin-6-yl-1,2,4-oxadiazol-3-yl)-cyclobutyl]-phenyl}-pyrimidin-2-ylamine]	6.35	8.17
Nc1ncc(-c2ccc(C3(c4noc(NCCO)n4)CCC3)cc2)cn1 [Example 74, 2-(3-{1-[4-(2-amino-pyrimidin-5-yl)-phenyl]-cyclobutyl}-1,2,4-oxadiazol-5-ylamino)-ethanol]	6.28	7.15
Nc1ncc(-c2ccc(C3(c4noc(-c5ccc(C(=O)N6CCC(F)(F)C6)nc5)n4)CCC3)cc2)cn1 [Example 75, [5-(3-{1-[4-(2-Amino-pyrimidin-5-yl)-phenyl]-cyclobutyl}-1,2,4-oxadiazol-5-yl)-pyridin-2-yl]-(3,3-difluoro-pyrrolidin-1-yl)-methanone]	6.72	8.46
